Like-named read-outs stand apart in the source and are kept apart here.
What was measured:
[1] = tested on: RPE-Neo or RPE-MYC or RPE-MYC expressing an EGFP-Histone 2B fusion protein; assay: Phenotypic screening assay (arrest in mitosis or change in DNA content, IN-Cell Analyzer); type: cell-based; conditions: compounds at 20 nM to 20 μM, analysed 24, 48 or 72 hours after initiation of treatment
Method: (§1) Screening was conducted as described before (Li et al. 2019). Briefly, RPE-Neo or RPE-MYC or RPE-MYC expressing an EGFP-Histone 2B fusion protein were passaged as batches of 96-well plates, 18-24 hours before exposure to the chemical compounds of the present disclosure at concentrations from 20 nM to 20 μM. At 24, 48 or 72 hours after initiation of treatment, cells were analyzed for either an arrest in mitosis or a change in DNA content by GE 1N-Cell Analyzer 2000. MTT assays of cellular proliferation were performed as previously described (Li et al. 2019).
(§2) As set forth in table 2 below, an values of greater than or equal to 1 nM and less than or equal to 1.0 μM is marked “A”; a value greater than 1.00 μM and less than or equal to 10.0 μM is marked “B”; a value greater than 10.0 μM and less than or equal to 30.0 μM is marked “C”; and a value greater than 30.0 μM and less than 1000 μM is marked “D.”

RPE-Neo or RPE-MYC cells = assay: MTT assay of cellular proliferation; type: cell-based; conditions: compounds at 20 nM to 20 μM; read-out: Min. Effective conc. for Proliferative arrest (>50%)
Method: Human cancer cell lines were obtained from ATCC and cultured in DMEM (Gibco, Cleveland. TN, USA) supplemented with 5% fetal bovine serum (Gibco), penicillin (100 U/mL)-streptomycin (100 μg/mL) (Gibco, Cat. No. 15140-122), 2 mM L-glutamine (Gibco, 200 mM solution, Cat. No. 25030081), and 1 mM sodium pyruvate (Gibco, 100 mM solution, Cat. No. 11360070) at 37° C. in a humidified incubator that was maintained at 5% CO2.
as §1, §2

[2] = read-out: Min. Effective conc. for Along with Cell Death
[3] = read-out: Min. Effective conc. for Mitotic Arrest (>5%)
[4] = read-out: Min. Effective conc. for Polyploidy (≥5%)

Measured: minimal effective concentration

Cc1ccc(CN2C(=O)CC(c3cnco3)=C(Br)c3ccc(O)cc32)cc1F [Compound 8-10, 5-bromo-1-(3-fluoro-4-methylbenzyl)-8-hydroxy-4-(oxazol-5-yl)-1,3-dihydro-2H-benzo[b]azepin-2-one]
0.001 to 1 µM: [1]; [2] | [1]; [3] | [1]; [4] | RPE-Neo or RPE-MYC cells

Cc1ccc2c(c1)N(Cc1ccc(C)c(F)c1)C(=O)CC(c1cnco1)=C2Br [Compound 8-13, 5-bromo-1-(3-fluoro-4-methylbenzyl)-8-methyl-4-(oxazol-5-yl)-1,3-dihydro-2H-benzo[b]azepin-2-one]
0.001 to 1 µM: [1]; [2] | [1]; [3] | [1]; [4] | RPE-Neo or RPE-MYC cells

COC1=C(c2nc(C)no2)CC(=O)N(Cc2ccc(C)c(F)c2)c2cc(Br)ccc21 [Compound 10-1, 8-bromo-1-(3-fluoro-4-methylbenzyl)-5-methoxy-4-(3-methyl-1,2,4-oxadiazol-5-yl)-1,3-dihydro-2H-benzo[b]azepin-2-one]
0.001 to 1 µM: [1]; [2] | [1]; [3] | [1]; [4] | RPE-Neo or RPE-MYC cells

Cc1ccc(CN2C(=O)CC(c3ccon3)=C(Cl)c3ccccc32)cc1F [Compound 13-1, 5-chloro-1-(3-fluoro-4-methylbenzyl)-4-(isoxazol-3-yl)-1,3-dihydro-2H-benzo[b]azepin-2-one]
0.001 to 1 µM: [1]; [2] | [1]; [3] | [1]; [4] | RPE-Neo or RPE-MYC cells

Cc1ccc(CN2C(=O)CC(c3ccon3)=C(Br)c3ccccc32)cc1F [Compound 13-2]
0.001 to 1 µM: [1]; [2] | [1]; [3] | [1]; [4] | RPE-Neo or RPE-MYC cells

Cc1ccc(CN2C(=O)CC(c3nnc(N)s3)=C(Cl)c3ccccc32)cc1F [Compound 15-1, 4-(5-amino-1,3,4-thiadiazol-2-yl)-5-chloro-1-(3-fluoro-4-methylbenzyl)-1,3-dihydro-2H-benzo[b]azepin-2-one]
0.001 to 1 µM: [1]; [2] | [1]; [3] | [1]; [4] | RPE-Neo or RPE-MYC cells

Cc1ccc(CN2C(=O)CC(c3nnc(N)s3)=C(Br)c3ccccc32)cc1F [Compound 15-2, 4-(5-amino-1,3,4-thiadiazol-2-yl)-5-bromo-1-(3-fluoro-4-methylbenzyl)-1,3-dihydro-2H-benzo[b]azepin-2-one]
0.001 to 1 µM: [1]; [2] | [1]; [3] | [1]; [4] | RPE-Neo or RPE-MYC cells

Cc1noc(C2=C(Br)c3ccccc3N(Cc3ccc(C)c(F)c3)C(=O)C2)n1 [Compound 18-1, 5-bromo-1-(3-fluoro-4-methylbenzyl)-4-(3-methyl-1,2,4-oxadiazol-5-yl)-1,3-dihydro-2H-benzo[b]azepin-2-one]
0.001 to 1 µM: [1]; [2] | [1]; [3] | [1]; [4] | RPE-Neo or RPE-MYC cells

Cc1nnc(C2=C(Cl)c3ccccc3N(Cc3ccc(C)c(F)c3)C(=O)C2)o1 [Compound 20-1, 5-chloro-1-(3-fluoro-4-methylbenzyl)-4-(5-methyl-1,3,4-oxadiazol-2-yl)-1,3-dihydro-2H-benzo[b]azepin-2-one]
0.001 to 1 µM: [1]; [2] | [1]; [3] | [1]; [4] | RPE-Neo or RPE-MYC cells

Cc1nnc(C2=C(Br)c3ccccc3N(Cc3ccc(C)c(F)c3)C(=O)C2)o1 [Compound 20-2, 5-bromo-1-(3-fluoro-4-methylbenzyl)-4-(5-methyl-1,3,4-oxadiazol-2-yl)-1,3-dihydro-2H-benzo[b]azepin-2-one]
0.001 to 1 µM: [1]; [2] | [1]; [3] | [1]; [4] | RPE-Neo or RPE-MYC cells

Cc1ccc(CN2C(=O)CC(c3nnc(C4CC4)o3)=C(Br)c3ccccc32)cc1F [Compound 20-3, 5-bromo-4-(5-cyclopropyl-1,3,4-oxadiazol-2-yl)-1-(3-fluoro-4-methylbenzyl)-1,3-dihydro-2H-benzo[b]azepin-2-one]
0.001 to 1 µM: [1]; [2] | [1]; [3] | [1]; [4] | RPE-Neo or RPE-MYC cells

COc1ccc2c(c1)N(Cc1ccc(C)c(F)c1)C(=O)CC(c1nnc(C3CC3)o1)=C2Br [Compound 20-4, 5-bromo-4-(5-cyclopropyl-1,3,4-oxadiazol-2-yl)-1-(3-fluoro-4-methylbenzyl)-8-methoxy-1,3-dihydro-2H-benzo[b]azepin-2-one]
0.001 to 1 µM: [1]; [2] | [1]; [3] | [1]; [4] | RPE-Neo or RPE-MYC cells

Cc1ccc(CN2C(=O)CC(c3nnc(C4CC4)o3)=C(Cl)c3ccccc32)cc1F [Compound 20-5, 5-chloro-4-(5-cyclopropyl-1,3,4-oxadiazol-2-yl)-1-(3-fluoro-4-methylbenzyl)-1,3-dihydro-2H-benzo[b]azepin-2-one]
0.001 to 1 µM: [1]; [2] | [1]; [3] | [1]; [4] | RPE-Neo or RPE-MYC cells

Cc1ccc(CN2C(=O)CC(c3nnc(C4CC4)o3)=C(Br)c3ccc(F)cc32)cc1F [Compound 20-7, 5-bromo-4-(5-cyclopropyl-1,3,4-oxadiazol-2-yl)-8-fluoro-1-(3-fluoro-4-methylbenzyl)-1,3-dihydro-2H-benzo[b]azepin-2-one]
0.001 to 1 µM: [1]; [2] | [1]; [3] | [1]; [4] | RPE-Neo or RPE-MYC cells

Cc1nnc(C2=C(Br)c3ccc(F)cc3N(Cc3ccc(C)c(F)c3)C(=O)C2)o1 [Compound 20-8, 5-bromo-8-fluoro-1-(3-fluoro-4-methylbenzyl)-4-(5-methyl-1,3,4-oxadiazol-2-yl)-1,3-dihydro-2H-benzo[b]azepin-2-one]
0.001 to 1 µM: [1]; [2] | [1]; [3] | [1]; [4] | RPE-Neo or RPE-MYC cells

Cc1ccc(CN2C(=O)CC(c3nnc(C4CC4)o3)=C(Br)c3ccc(Cl)cc32)cc1F [Compound 20-9, 5-bromo-8-chloro-4-(5-cyclopropyl-1,3,4-oxadiazol-2-yl)-1-(3-fluoro-4-methylbenzyl)-1,3-dihydro-2H-benzo[b]azepin-2-one]
0.001 to 1 µM: [1]; [2] | [1]; [3] | [1]; [4] | RPE-Neo or RPE-MYC cells

Cc1nnc(C2=C(Br)c3ccc(Cl)cc3N(Cc3ccc(C)c(F)c3)C(=O)C2)o1 [Compound 20-10, 5-bromo-8-chloro-1-(3-fluoro-4-methylbenzyl)-4-(5-methyl-1,3,4-oxadiazol-2-yl)-1,3-dihydro-2H-benzo[b]azepin-2-one]
0.001 to 1 µM: [1]; [2] | [1]; [3] | [1]; [4] | RPE-Neo or RPE-MYC cells

Cc1ccc(CN2C(=O)CC(c3nnc(C4CC4)o3)=C(Br)c3ccc(C#N)cc32)cc1F [Compound 20-11, 5-bromo-4-(5-cyclopropyl-1,3,4-oxadiazol-2-yl)-1-(3-fluoro-4-methylbenzyl)-2-oxo-2,3-dihydro-1H-benzo[b]azepine-8-carbonitrile]
0.001 to 1 µM: [1]; [2] | [1]; [3] | [1]; [4] | RPE-Neo or RPE-MYC cells

From patent publication US20250011289A1, “1H-BENZO[B]AZEPIN-2(3H)-ONE COMPOUNDS, COMPOSITIONS AND METHODS OF TREATING CANCER” (Chengdu Anticancer Bioscience, Ltd., priority 2021, published 2025)
